Consider 24 molecules from patent publication US20230069963A1, “PYRAZOLO[1,5-A]PYRIMIDINE MACROCYCLIC COMPOUND” (priority 2018, published 2023).

Where a name gives a salt, the structure may show the parent alone.

The test system of one assay is RSV ATCC VR-1540 (A2). In words: microbe, parasite or virus in culture. It is filed as cell-based. Conditions: Hep2 cells, incubated for 4 days, CPE detected with XTT assay (absorbance 450 nm); read-out: EC50 (nmol/L) against RSV A2 strain. Background: Tetrazolium dyes change colour on reduction, which living cells bring about.
Regarding “(18aS)-2-fluoro-13-(cis-3-hydroxycyclobutyl)-11-methyl-8,9,10,11,19,20,21,22-octahydro-l 8aH,24H-18,15-(metheno)pyrido[2,1-l]pyrimido[6,1-h][1,4,7,9,10,13]benzoxapentaazacyclohexadecine-7,24(6H)-dione [Example 109]”, the EC50 came to 1.14 nmol/L. For the molecule “(18aS)-13-(azetidin-1-yl)-2-fluoro-7-(hydroxymethyl)-11-methyl-6,7,8,9,10,11,19,20,21,22-decahydro-18aH,24H-18,15-(metheno)pyrido[2,1-l]pyrimido[6,1-h][1,4,7,9,10,13]benzoxapentaazacyclohexadecin-24-one [Example 146]”, the EC50 is 20.8 nmol/L. Regarding “(23aS)-18-(azetidin-1-yl)-8-fluoro-16-methyl-1,3,4,11,12,13,14,15,16,23a-decahydro-2H,6H-23,20-(metheno)pyrido[1,2-b]pyrimido[1,6-f][2,5,6,8,11]benzopentaazacyclopentadecin-6-one [Example 148]”, the EC50 was found to be 28.9 nmol/L.

The assay is the same for the next values; noted with them: human respiratory syncytial virus, HEp-2, 96 h; Hep2 cells, incubated for 4 days, CPE detected with XTT assay (absorbance 450 nm); read-out: EC50 (nmol/L) against RSV A2 strain.
As to `Cc1c(N2CCC2)nc2cc3nn2c1NCCCCOc1ccc(Cl)cc1C(=O)N1CCCC[C@@H]31` [Example 284, (23aS)-18-(azetidin-1-yl)-8-chloro-17-methyl-1,3,4,13,14,15,16,23a-octahydro-2H,6H,12H-23,20-(metheno)pyrido[2,1-k]pyrimido[6,1-g][1,6,8,9,12]benzoxatetraazacyclopentadecin-6-one], the EC50 was 22.2 nmol/L. For the molecule `Cc1c(NCCN)nc2cc3nn2c1NCCCCOc1ccc(Cl)cc1C(=O)N1CCCC[C@@H]31` [Example 285, (23aS)-18-[(2-aminoethyl)amino]-8-chloro-17-methyl-1,3,4,13,14,15,16,23a-octahydro-2H,6 H,12H-23,20-(metheno)pyrido[2,1-k]pyrimido[6,1-g][1,6,8,9,12]benzoxatetraazacyclopentadecin-6-one hydrochloride], the EC50 was 11.9 nmol/L. Still for that read-out and setting: to `Cc1c(N2CCC(N)C2)nc2cc3nn2c1N(C)CCCCOc1ccc(Cl)cc1C(=O)N1CCCCC31` [Example 286, (23aS)-18-[(3S)-3-aminopyrrolidin-1-yl]-8-chloro-16,17-dimethyl-1,3,4,13,14,15,16,23a-octahydro-2H,6H,12H-23,20-(metheno)pyrido[2,1-k]pyrimido[6,1-g][1,6,8,9,12]benzoxatetraazacyclopentadecin-6-one] belongs 20.8 nmol/L. Same read-out and setting: the value for `CN1CCOCCOc2ccc(Cl)cc2C(=O)N2CCCCC2c2cc3nc(N4CCC(N)C4)cc1n3n2` [Example 297, (18aS)-13-[(3S)-3-aminopyrrolidin-1-yl]-2-chloro-11-methyl-6,7,10,11,19,20,21,22-octahydro-9H,18aH,24H-18,15-(metheno)pyrido[2,1-l]pyrimido[6,1-h][1,4,7,9,10,13]benzodioxatetraazacyclohexadecin-24-one] was 8.74 nmol/L; that for `Cc1c(N2CCC(N)C2)nc2cc3nn2c1NCCOCCOc1ccc(Cl)cc1C(=O)N1CCCCC31` [Example 299, (18aS)-13-[(3S)-3-aminopyrrolidin-1-yl]-2-chloro-12-methyl-6,7,10,11,19,20,21,22-octahydro-9H,18aH,24H-18,15-(metheno)pyrido[2,1-l]pyrimido[6,1-h][1,4,7,9,10,13]benzodioxatetraazacyclohexadecin-24-one] was 9.69 nmol/L; that for `CCc1ccc2c(c1)C(=O)N(C)[C@@H](CC)c1cc3nc(N4CC[C@H](N)C4)cc(n3n1)N(C)CCCS(=O)(=O)N2` [Example 303, (17S)-3-[(3S)-3-aminopyrrolidin-1-yl]-13,17-diethyl-5,16-dimethyl-7,8,16,17-tetrahydro-5H-18,1-(metheno)-9λ^6-pyrimido[6,1-g][2,1,6,8,9,12]benzothiapentaazacyclopentadecine-9,9,15 (6H,10H)-trione] was 10.5 nmol/L.

Regarding `CCN1CCCS(=O)(=O)Nc2ccc(F)cc2C(=O)N2CCCC[C@H]2c2cc3nc(N4CCC4)cc1n3n2` [Example 318, (23aS)-18-(azetidin-1-yl)-16-ethyl-8-fluoro-1,3,4,13,14,15,16,23a-octahydro-2H,6H-23,20-(metheno)-12λ^6-pyrido[2,1-k]pyrimido[6,1-g][2,1,6,8,9,12]benzothiapentaazacyclopentadecine-6,12,12(11H)-trione], the EC50 is 22.7 nmol/L. Same read-out and setting: the value for `Cc1c(NCCN)nc2cc3nn2c1N(C)CCCS(=O)(=O)Nc1ccc(Cl)cc1C(=O)N1CCCC[C@@H]31` [Example 327, (23aS)-18-[(2-aminoethyl)amino]-8-chloro-16,17-dimethyl-1,3,4,13,14,15,16,23a-octahydro-2H,6H-23,20-(metheno)-12λ^6-pyrido[2,1-k]pyrimido[6,1-g][2,1,6,8,9,12]benzothiapentaazacyclopentadecine-6,12,12(11H)-trione] was 1.72 nmol/L; that for `Cc1nnc2n1CCN(C)c1cc(N3CC(N)C3)nc3cc(nn13)[C@@H]1CCCCN1C(=O)c1cc(Cl)ccc1OC2` [Example 328, (20aS)-15-(3-aminoazetidin-1-yl)-2-chloro-9,13-dimethyl-12,13,21,22,23,24-hexahydro-6H, 11H,20aH,26H-20,17-(metheno)pyrido[2,1-l]pyrimido[6,1-h][1,2,4]triazolo[3,4-c][1,4,7,9,10,13]benzoxapentaazacyclohexadecin-26-one] was 9.48 nmol/L. On the same count and under the same terms, the value for `Cc1nnc2n1CCN(C)c1cc(N3CCC3)nc3cc(nn13)[C@@H]1CCCCN1C(=O)c1cc(Cl)ccc1OC2` [Example 329, (20aS)-15-(azetidin-1-yl)-2-chloro-9,13-dimethyl-12,13,21,22,23,24-hexahydro-6H,11H,20aH,26H-20,17-(metheno)pyrido[2,1-l]pyrimido[6,1-h][1,2,4]triazolo[3,4-c][1,4,7,9,10,13]benzoxapentaazacyclohexadecin-26-one] was 1.61 nmol/L. The same measure, in the same setting: to `CN1CCc2cn(nn2)Cc2ccc(Cl)cc2C(=O)N2CCCC[C@H]2c2cc3nc(N4CC(N)C4)cc1n3n2` [Example 330, (19aS)-14-(3-aminoazetidin-1-yl)-2-chloro-12-methyl-11,12,20,21,22,23-hexahydro-10H,19aH-6,9:19,16-di(metheno)pyrido[2,1-m]pyrimido[6,1-i][2,3,4,8,10,11,14]benzoheptaazacycloheptadecin-25(5H)-one] belongs 19.8 nmol/L; to `CN1CCCC(=O)NCC(C)(c2ccc(F)cc2)C(=O)N2CCCC[C@H]2c2cc3nc(N4CC(N)C4)cc1n3n2` (stereo partly drawn) [Example 371, (18aS)-3-(3-aminoazetidin-1-yl)-12-(4-fluorophenyl)-5,12-dimethyl-7,8,11,12,16,17,18,18a-octahydro-5H,15H-19,1-(metheno)pyrido[1,2-m]pyrimido[1,6-b][1,2,4,9,13]pentaazacyclopentadecine-9,13(6H,10H)-dione], 12.8 nmol/L; to `CN1CCCCS(=O)(=O)NC(C)(c2ccc(F)cc2)C(=O)N2CCCC[C@H]2c2cc3nc(N4CC(O)C4)cc1n3n2` (stereo partly drawn) [Example 377, (18aS)-12-(4-fluorophenyl)-3-(3-hydroxyazetidin-1-yl)-5,12-dimethyl-6,7,8,9,11,12,16,17,18,18a-decahydro-5H,15H-19,1-(metheno)-10λ^6-pyrido[1,2-e]pyrimido[1,6-i][1,2,5,8,9,11]thiapentaazacyclopentadecine-10,10,13-trione], 22.7 nmol/L. Regarding `CN1CCCCOCC(C)(c2cccnc2)C(=O)N2CCCCC2c2cc3nc(N4CC(N)C4)cc1n3n2` [Example 380, (18aS)-3-(3-aminoazetidin-1-yl)-5,12-dimethyl-12-(pyridin-3-yl)-6,7,8,9,11,12,16,17,18,18a-decahydro-5H,13H,15H-19,1-(metheno)pyrido[,2-e]pyrimido[1,6-i][1,5,8,9,11]oxatetraazacyclopentadecin-13-one], the EC50 turned out to be 8.77 nmol/L.

The next assay deals with F protein D486N mutant strain of RSV A2 strain.
Experiment: not given
The format is cell-based, respiratory syncytial virus (RSV). The conditions noted are these: Hep2 cells, incubated for 4 days, CPE detected with XTT assay (absorbance 450 nm); read-out: EC50 (nmol/L) against F protein D486N mutant strain of RSV A2 strain.
With `CC1CCNC(=O)COc2ccc(Cl)cc2C(=O)N2CCCCC2c2cc3nc(C4CC4)cc1n3n2` (single isomer, unassigned) [Example 124a], the EC50 was 7.23 nmol/L.

Turning to `Cc1ccc2c(c1)C(=O)N1CCCCC1c1cc3nc(C4CC4)cc(n3n1)C(C)CCNC(=O)CO2` (single isomer, unassigned) [Example 126a], the EC50 stood at 2.05 nmol/L. Same read-out and setting: the value for `CN1CCNC(C(F)(F)F)COc2ccc(Cl)cc2C(=O)N2CCCCC2c2cc3nc(N4CC(N)C4)cc1n3n2` (single isomer, unassigned) [Example 339] was 4.11 nmol/L; that for `CN1CC(=O)NCCOc2ccc(F)cc2C(=O)N2CCCC[C@H]2c2cc3nc(N4CC(N)C4)cc1n3n2` [Example 37, (18aS)-13-(3-aminoazetidin-1-yl)-2-fluoro-1-methyl-7,8,10,11,19,20,21,22-octahydro-8aH,24H-18,15-(metheno)pyrido[2,1-l]pyrimido[6,1-h][1,4,7,9,10,13]benzoxapentaazacyclohexadecine-9,24(6H)-dione] was 10.1 nmol/L.

Take `CN1CCNC(=O)COc2ccc(Cl)cc2C(=O)N2CCCC[C@H]2c2cc3nc(N4CC(O)C4)cc1n3n2` [Example 39]: the EC50 worked out at 0.867 nmol/L. On the same count and under the same terms, to `[2H]C([2H])([2H])c1ccc2c(c1)C(=O)N1CCCC[C@H]1c1cc3nc(N4CC(O)C4)cc(n3n1)N(C)CCNC(=O)CO2` [Example 53, (18aS)-13-(3-hydroxyazetidin-1-yl)-1-methyl-2-trideuteriomethyl-8,9,10,11,19,20,21,22-octahydro-18aH,24H-18,15-(metheno)pyrido[2,1-l]pyrimido[6,1-h][1,4,7,9,10,13]benzoxapentaazacyclohexadecine-7,24(6H)-dione] belongs 1.05 nmol/L.

Turning to `CN1CCNC(=O)COc2ccc(F)cc2C(=O)N2CCCC[C@H]2c2cc3nc(C4CC4)cc1n3n2` [Example 90, (18aS)-13-cyclopropyl-2-fluoro-11-methyl-8,9,10,11,19,20,21,22-octahydro-18aH,24H-18,15-(metheno)pyrido[2,1-l]pyrimido[6,1-h][1,4,7,9,10,13]benzoxapentaazacyclohexadecine-7,24(6H)-dione], the EC50 is 2.8 nmol/L.
